Key:
dopamine neurons = test: Survival of TH-positive dopamine neurons in dissociated midbrain floor cultures; format: cell-based, mouse; details: 5 days; for survived neurons as % compared to neurons grown in the presence of GDNF: Table 3B (FIG. 17), AVG; for protection of dopaminergic neurons in culture (result in words): added to the culture medium, TH-positive neurons counted
Summary of the method: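 Dissociated E13.5 NMRI mouse midbrain floor neurons grown five days in DMEM/F12 with N2, with polypeptides at a range of concentrations, GDNF (100 ng/ml), or nothing. TH-immunopositive neurons were counted by imaging. Values are a percentage of GDNF-maintained TH-positive neurons, as mean ± SEM from at least three independent cultures.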

ER stressed SCG neurons = test: Survival of tunicamycin-treated (ER stressed) SCG sympathetic neurons after microinjection; format: cell-based, mice; details: tunicamycin 2 μM; for survived neurons as % compared to neurons grown in the presence of NGF: Table 1B (FIG. 16), microinjected into cytoplasm, counted after 3 days, CDNF (400); for rescue of ER stressed SCG neurons (result in words): protein or peptide microinjected into the cytoplasm, living fluorescent neurons counted after 3 days
Summary of the method: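 Newborn mouse SCG neurons grown 5-6 days with 30 ng/ml NGF, then microinjected with CDNF (FL or C-terminal) plasmids (10 ng/ul, EGFP reporter) or proteins (200 ng/ul, Dextran Texas Red). Tunicamycin (2 μM) added next day. Fluorescent survivors counted blindly after 3 days as % of initial; compared with vector or PBS (ANOVA/Dunnett).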

## TLDLASVDLRKMRVAELKQILHSWGEECRACAEKTDYVNLIQEPAPKYA (Mutated C-CDNF peptide) [pep13]
Dopamine neurons; 1 ng/ml
  survived neurons as % compared to neurons grown in the presence of GDNF: 71.07 % GDNF
Dopamine neurons; 10 ng/ml
  survived neurons as % compared to neurons grown in the presence of GDNF: 86.81 % GDNF
Dopamine neurons; 100 ng/ml
  survived neurons as % compared to neurons grown in the presence of GDNF: 88.07 % GDNF
Dopamine neurons; 1000 ng/ml
  survived neurons as % compared to neurons grown in the presence of GDNF: 85.36 % GDNF
Dopamine neurons
  protection of dopaminergic neurons in culture (result in words): best protective effect
ER stressed SCG neurons; exp1
  survived neurons as % compared to neurons grown in the presence of NGF: 77.41 % NGF
ER stressed SCG neurons; exp2
  survived neurons as % compared to neurons grown in the presence of NGF: 72.46 % NGF
ER stressed SCG neurons; exp3
  survived neurons as % compared to neurons grown in the presence of NGF: 80.39 % NGF
ER stressed SCG neurons
  rescue of ER stressed SCG neurons (result in words): rescue

## TLDLASVDLRKMRVAELKQILHSWGEECRARACAEKTDYVNLIQELAPKYA (Mutated C-CDNF peptide) [pep11]
Dopamine neurons; 1 ng/ml
  survived neurons as % compared to neurons grown in the presence of GDNF: 59.60 % GDNF
Dopamine neurons; 10 ng/ml
  survived neurons as % compared to neurons grown in the presence of GDNF: 60.76 % GDNF
Dopamine neurons; 100 ng/ml
  survived neurons as % compared to neurons grown in the presence of GDNF: 69.28 % GDNF
Dopamine neurons; 1000 ng/ml
  survived neurons as % compared to neurons grown in the presence of GDNF: 70.22 % GDNF
ER stressed SCG neurons; exp1
  survived neurons as % compared to neurons grown in the presence of NGF: 46.25 % NGF
ER stressed SCG neurons; exp2
  survived neurons as % compared to neurons grown in the presence of NGF: 48.61 % NGF
ER stressed SCG neurons; exp3
  survived neurons as % compared to neurons grown in the presence of NGF: 44.64 % NGF

## TLDLASVDLRKMRVAELKQILHSWGEECRASAEKTDYVNLIQELAPKYA (C-CDNF peptide with single amino acid substitution) [pep10]
Dopamine neurons; 1 ng/ml
  survived neurons as % compared to neurons grown in the presence of GDNF: 54.25 % GDNF
Dopamine neurons; 10 ng/ml
  survived neurons as % compared to neurons grown in the presence of GDNF: 63.09 % GDNF
Dopamine neurons; 100 ng/ml
  survived neurons as % compared to neurons grown in the presence of GDNF: 68.97 % GDNF
Dopamine neurons; 1000 ng/ml
  survived neurons as % compared to neurons grown in the presence of GDNF: 69.16 % GDNF
ER stressed SCG neurons; exp1
  survived neurons as % compared to neurons grown in the presence of NGF: 42.46 % NGF
ER stressed SCG neurons; exp2
  survived neurons as % compared to neurons grown in the presence of NGF: 45.16 % NGF
ER stressed SCG neurons; exp3
  survived neurons as % compared to neurons grown in the presence of NGF: 40.35 % NGF

## TLDLASVDLRKMRVAELKQILHSWGEESRACAEKTDYVNLIQELAPKYA (C-CDNF peptide with single amino acid substitution) [pep9]
Dopamine neurons; 1 ng/ml
  survived neurons as % compared to neurons grown in the presence of GDNF: 62.74 % GDNF
Dopamine neurons; 10 ng/ml
  survived neurons as % compared to neurons grown in the presence of GDNF: 69.29 % GDNF
Dopamine neurons; 100 ng/ml
  survived neurons as % compared to neurons grown in the presence of GDNF: 71.62 % GDNF
Dopamine neurons; 1000 ng/ml
  survived neurons as % compared to neurons grown in the presence of GDNF: 67.12 % GDNF
ER stressed SCG neurons; exp1
  survived neurons as % compared to neurons grown in the presence of NGF: 41.23 % NGF
ER stressed SCG neurons; exp2
  survived neurons as % compared to neurons grown in the presence of NGF: 44.00 % NGF
ER stressed SCG neurons; exp3
  survived neurons as % compared to neurons grown in the presence of NGF: 44.44 % NGF

## TLDLASVDLRKMRVAEPKQILHSWGEECRACAEKTDYVNLIQELAPKYA (Mutated C-CDNF peptide) [pep12]
Dopamine neurons; 1 ng/ml
  survived neurons as % compared to neurons grown in the presence of GDNF: 68.57 % GDNF
Dopamine neurons; 10 ng/ml
  survived neurons as % compared to neurons grown in the presence of GDNF: 83.1 % GDNF
Dopamine neurons; 100 ng/ml
  survived neurons as % compared to neurons grown in the presence of GDNF: 87.93 % GDNF
Dopamine neurons; 1000 ng/ml
  survived neurons as % compared to neurons grown in the presence of GDNF: 84.16 % GDNF
Dopamine neurons
  protection of dopaminergic neurons in culture (result in words): best protective effect
ER stressed SCG neurons; exp1
  survived neurons as % compared to neurons grown in the presence of NGF: 86.74 % NGF
ER stressed SCG neurons; exp2
  survived neurons as % compared to neurons grown in the presence of NGF: 86.15 % NGF
ER stressed SCG neurons; exp3
  survived neurons as % compared to neurons grown in the presence of NGF: 70.17 % NGF
ER stressed SCG neurons
  rescue of ER stressed SCG neurons (result in words): rescue

## TLDLASVDLRKMRVAEPKQILHSWGEECRACAEKTDYVNLIQEPAPKYA (Mutated C-CDNF peptide) [pep14]
Dopamine neurons; 1 ng/ml
  survived neurons as % compared to neurons grown in the presence of GDNF: 71.49 % GDNF
Dopamine neurons; 10 ng/ml
  survived neurons as % compared to neurons grown in the presence of GDNF: 84.24 % GDNF
Dopamine neurons; 100 ng/ml
  survived neurons as % compared to neurons grown in the presence of GDNF: 85.71 % GDNF
Dopamine neurons; 1000 ng/ml
  survived neurons as % compared to neurons grown in the presence of GDNF: 82.81 % GDNF
Dopamine neurons
  protection of dopaminergic neurons in culture (result in words): best protective effect
ER stressed SCG neurons; exp1
  survived neurons as % compared to neurons grown in the presence of NGF: 55.76 % NGF
ER stressed SCG neurons; exp2
  survived neurons as % compared to neurons grown in the presence of NGF: 34.32 % NGF
ER stressed SCG neurons; exp3
  survived neurons as % compared to neurons grown in the presence of NGF: 48.43 % NGF
